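96-well plates; 48 h exposure; 5 concentrations. Endpoints by linear interpolation between flanking doses. Not reached: highest tested concentration assigned. GI50 = concentration required for 50% inhibition of growth. TGI: concentration producing complete growth inhibition.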
Legend:
Test in all cases: NCI anticancer screen, dose series, 48 h
SW-620 colon = tested on: SW-620 colon
EKVX NSCLC = tested on: EKVX NSCLC
K-562 leukemia = tested on: K-562 leukemia
OVCAR-5 ovarian = tested on: OVCAR-5 ovarian
NCI-H226 lung = tested on: NCI-H226 lung
OVCAR-4 ovarian = tested on: OVCAR-4 ovarian
U251 CNS = tested on: U251 CNS
SF-268 CNS = tested on: SF-268 CNS
CCRF-CEM leukemia = tested on: CCRF-CEM leukemia
LOX IMVI melanoma = tested on: LOX IMVI melanoma
SF-539 CNS = tested on: SF-539 CNS

Row | Structure (SMILES) | TGI (SW-620 colon) [µM] | TGI (EKVX NSCLC) [µM] | TGI (K-562 leukemia) [µM] | TGI (OVCAR-5 ovarian) [µM] | TGI (NCI-H226 lung) [µM] | TGI (OVCAR-4 ovarian) [µM] | TGI (U251 CNS) [µM] | TGI (SF-268 CNS) [µM] | TGI (CCRF-CEM leukemia) [µM] | TGI (LOX IMVI melanoma) [µM] | TGI (SF-539 CNS) [µM] | GI50 (OVCAR-5 ovarian) [µM] | GI50 (SF-539 CNS) [µM]
1 | CCC(C)C(NC(=O)C(CCCC[N+](=N)N)NC(=O)C(CCCC[N+](=N)N)NC(=O)c1ccc(OC)cc1)C(=O)NC(CCCC[N+](=N)N)C(=O)N1CCCC1C(=O)NC(CCCCN)C(=O)NC(CC(C)C)C(N)=O (centres undefined) | > 100 | > 100 | > 100 | > 100 | > 100 | > 100 | > 100 | > 100 | > 100 | > 100 | > 100 |  | 
2 | CC(=O)Nc1ccc2c(c1)nc1c3ccccc3ccn21 | > 100 | > 100 | > 100 | > 100 | > 100 | > 100 | > 100 | > 100 | > 100 | > 100 | > 100 |  | 
3 | O=C1C=CC(=O)c2c(O)c(N3CCN(c4ncccn4)CC3)c(Cl)c(O)c21 | 2.97 | 24.8 | 5.07 | 19.8 | 44.8 | 3.69 | 12 | 7.88 | 4.24 | 3.55 | 3.63 |  | 
4 | CCC1(c2ccc(OC)c(OC)c2)CCN2C(=O)C(O)CC21 (centres undefined) | > 100 | > 100 | > 100 | > 100 | > 100 | > 100 | > 100 | > 100 | > 100 | > 100 |  |  | 
5 | O=C(O)C12C3C4(C(=O)O)C1C1(C(=O)O)C2C3(C(=O)O)C41 (centres undefined) | > 100 | > 100 | > 100 | > 100 |  | > 100 | > 100 | > 100 | > 100 | > 100 | > 100 |  | 
6 | O=C(O)Cn1c[n+](NC(=O)Cc2ccccc2)cn1 | > 10 | > 10 | > 10 | > 10 |  | > 10 | > 10 | > 10 | > 10 | > 10 | > 10 |  | 
7 | CC1=CC(O)CC(C)(C)C1/C=C/C(C)=C/C=C/C(C)=C/C=C/C=C(C)/C=C/C=C(C)/C=C/C1=C(C)CC(O)CC1(C)C (centres undefined) | 34.8 | > 100 | > 100 | 78.4 | 41.4 | 66.9 |  |  | > 100 | > 100 |  |  | 
8 | O=C1c2c(Br)sc(Br)c2[C@H]2OC(=S)N[C@@H]12 | 5.84 | 11.4 | 6.35 | 32.4 | 33.5 | 13.3 | 7.08 | 12 |  | 10.9 | 31.2 |  | 
9 | CC(Br)CN(CC(C)Br)c1ccc2c(c1)Cc1ccccc1-2 (centres undefined) | 40.2 | 30.3 | 33.2 | 34.9 |  | 25.9 | 22.7 | 23.3 | > 100 | 23.2 |  |  | 
10 | Oc1ccc(C[C@@H]2CN[C@H](Cc3ccc(O)c(Br)c3)CN2)cc1 | > 100 | > 100 |  | > 100 | > 100 | > 100 | > 100 | > 100 | > 100 |  | > 100 |  | 
11 | CCOC(=O)C(NC(=O)CC)(Nc1ccccc1F)C(F)(F)F (centres undefined) | > 100 | > 100 | > 100 | > 100 |  | > 100 | > 100 | > 100 |  | > 100 | > 100 |  | 
12 | O=C(/C=C/CC(O)(c1ccccc1)c1ccccc1)Nc1ccccc1Cl | > 100 | > 100 | > 100 | > 100 | > 100 | > 100 | > 100 | > 100 | > 100 |  |  |  | 
13 | CCc1nc2c([nH]1)C(=O)c1ccccc1C2=O | > 100 | > 100 | > 100 | > 100 | > 100 | > 100 | > 100 | > 100 | > 100 |  | > 100 |  | 
14 | COc1ccc(C(=O)/C=C/c2ccc(OCCCCCCCCCCOc3ccc(/C=C/C(=O)c4ccc(OC)c(OC)c4)cc3)cc2)c(OC)c1 | > 100 | > 100 | > 100 | > 100 | > 100 | > 100 | > 100 | > 100 | > 100 |  | > 100 |  | 
15 | CN1C2CCC1C(CO)C(=O)C2 (centres undefined) | 43.2 |  | 72 |  | > 100 | > 100 | > 100 | > 100 | 27.4 | > 100 | 52.9 |  | 
16 | CC1=[N+]([O-])C2(CCCC2)N(O)C1(C)C | > 100 | > 100 | > 100 | > 100 | > 100 | > 100 | > 100 | > 100 |  | > 100 | > 100 |  | 
17 | COc1ccccc1Cn1c2c(c3cc(O)ccc31)C(=O)c1ccccc1C2=O | > 100 |  | > 100 | 34.1 | 79 | 12 | 64.9 | 86.1 | > 100 | > 100 | 57.6 |  | 
18 | COc1cc2c3cc1Oc1cc(ccc1O)C[C@@H]1c4c(cc(OC)c(O)c4Oc4ccc(cc4)C[C@@H]3[N+](C)(C)CC2)CC[N+]1(C)C | > 100 | > 100 | > 100 | > 100 | > 100 | > 100 | > 100 | > 100 |  | 42.5 | 28.3 |  | 
19 | CC1CCc2sc3[nH]c(=S)n(C)c(=O)c3c2C1 (centres undefined) | > 100 | 94.6 | > 100 | > 100 | 87.9 | > 100 | > 100 | > 100 |  | > 100 |  |  | 
20 | CCc1ccc(OCc2ccccc2C(=O)Nc2ccc3nc(C)cc(N)c3c2)cc1 |  |  |  | 3.14 |  |  |  |  |  |  | 3.04 | 1.62 | 1.59
21 | O=C1CN(c2ccccc2)C(=O)C1C(=O)Nc1ccc(Cl)c(Cl)c1 (centres undefined) | 11.9 |  | 8.88 | 50.6 |  | 24.5 | 14.9 | 21.2 | > 100 |  | 16.3 |  | 
22 | Cn1c(=O)c2[nH]c(Nc3cccc(Cl)c3)nc2n(C)c1=O | > 10 | > 10 | > 10 |  |  | > 10 |  | > 10 | > 10 | > 10 |  |  | 
